# PubChem BioAssay (NCI)
#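 Step 1: Grow cells in 96-well plates. Step 2: Expose to compound for 48 hours at 5 concentrations. Step 3: Interpolate endpoints linearly; if unreached, use highest concentration. TGI denotes the concentration required for complete inhibition of growth.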
# Key:
# Experiment in all cases: inhibition of tumour cell growth, NCI panel, 48 h
# UO-31 renal = test system: UO-31 renal
# NCI/ADR-RES ovarian = test system: NCI/ADR-RES ovarian
# RPMI-8226 leukemia = test system: RPMI-8226 leukemia
# U251 CNS = test system: U251 CNS
# HCT-116 colon = test system: HCT-116 colon
# UACC-257 melanoma = test system: UACC-257 melanoma
# SK-OV-3 ovarian = test system: SK-OV-3 ovarian
# DU-145 prostate = test system: DU-145 prostate
# CAKI-1 renal = test system: CAKI-1 renal
# OVCAR-5 ovarian = test system: OVCAR-5 ovarian
# HL-60(TB) leukemia = test system: HL-60(TB) leukemia
# MOLT-4 leukemia = test system: MOLT-4 leukemia
# T-47D breast = test system: T-47D breast
# NCI-H460 lung = test system: NCI-H460 lung
# M14 melanoma = test system: M14 melanoma
# LOX IMVI melanoma = test system: LOX IMVI melanoma
# BT-549 breast = test system: BT-549 breast
# HOP-92 NSCLC = test system: HOP-92 NSCLC
# NCI-H522 lung = test system: NCI-H522 lung
# SNB-75 CNS = test system: SNB-75 CNS
# SF-539 CNS = test system: SF-539 CNS
# SF-268 CNS = test system: SF-268 CNS
# IGROV1 ovarian = test system: IGROV1 ovarian
# MDA-MB-231 breast = test system: MDA-MB-231 breast
# A498 renal = test system: A498 renal
# MALME-3M melanoma = test system: MALME-3M melanoma
# OVCAR-8 ovarian = test system: OVCAR-8 ovarian
# MDA-N = test system: MDA-N
# SK-MEL-5 melanoma = test system: SK-MEL-5 melanoma
# UACC-62 melanoma = test system: UACC-62 melanoma
# HCT-15 colon = test system: HCT-15 colon
# NCI-H226 lung = test system: NCI-H226 lung
# HCC-2998 colon = test system: HCC-2998 colon
# COLO 205 colon = test system: COLO 205 colon
# K-562 leukemia = test system: K-562 leukemia
# HT29 colon = test system: HT29 colon
# MCF7 breast = test system: MCF7 breast
# KM12 colon = test system: KM12 colon
# HS 578T breast = test system: HS 578T breast
# TK-10 renal = test system: TK-10 renal
# SNB-19 CNS = test system: SNB-19 CNS
# SR leukemia = test system: SR leukemia
# CCRF-CEM leukemia = test system: CCRF-CEM leukemia
# SN12C renal = test system: SN12C renal
# SK-MEL-28 melanoma = test system: SK-MEL-28 melanoma
# MDA-MB-435 = test system: MDA-MB-435
# PC-3 prostate = test system: PC-3 prostate
# OVCAR-4 ovarian = test system: OVCAR-4 ovarian
# 786-0 renal = test system: 786-0 renal
# HOP-62 NSCLC = test system: HOP-62 NSCLC
# EKVX NSCLC = test system: EKVX NSCLC
# SF-295 CNS = test system: SF-295 CNS
# OVCAR-3 ovarian = test system: OVCAR-3 ovarian
# SK-MEL-2 melanoma = test system: SK-MEL-2 melanoma
# A549 NSCLC = test system: A549 NSCLC
# NCI-H23 lung = test system: NCI-H23 lung
# SW-620 colon = test system: SW-620 colon
# ACHN renal = test system: ACHN renal
# RXF 393 renal = test system: RXF 393 renal
smiles,measurement,setting,value
O=C1CSC(/C=C/c2ccccc2)N1c1ccc(-n2c(-c3ccccc3)nc3ccccc3c2=O)cc1 (centres undefined),TGI,UO-31 renal,> 100 µM
same,TGI,NCI/ADR-RES ovarian,> 100 µM
same,TGI,RPMI-8226 leukemia,> 100 µM
same,TGI,U251 CNS,> 100 µM
same,TGI,HCT-116 colon,> 100 µM
same,TGI,UACC-257 melanoma,> 100 µM
same,TGI,SK-OV-3 ovarian,69 µM
same,TGI,DU-145 prostate,> 100 µM
same,TGI,CAKI-1 renal,> 100 µM
same,TGI,OVCAR-5 ovarian,> 100 µM
same,TGI,HL-60(TB) leukemia,> 100 µM
same,TGI,MOLT-4 leukemia,> 100 µM
same,TGI,T-47D breast,> 100 µM
same,TGI,NCI-H460 lung,> 100 µM
same,TGI,M14 melanoma,> 100 µM
same,TGI,LOX IMVI melanoma,> 100 µM
same,TGI,BT-549 breast,> 100 µM
same,TGI,HOP-92 NSCLC,> 100 µM
same,TGI,NCI-H522 lung,> 100 µM
same,TGI,SNB-75 CNS,90 µM
same,TGI,SF-539 CNS,> 100 µM
same,TGI,SF-268 CNS,> 100 µM
same,TGI,IGROV1 ovarian,> 100 µM
same,TGI,MDA-MB-231 breast,> 100 µM
same,TGI,A498 renal,> 100 µM
same,TGI,MALME-3M melanoma,> 100 µM
same,TGI,OVCAR-8 ovarian,> 100 µM
same,TGI,MDA-N,> 100 µM
same,TGI,SK-MEL-5 melanoma,> 100 µM
same,TGI,UACC-62 melanoma,> 100 µM
same,TGI,HCT-15 colon,> 100 µM
same,TGI,NCI-H226 lung,> 100 µM
same,TGI,HCC-2998 colon,> 100 µM
same,TGI,COLO 205 colon,> 100 µM
same,TGI,K-562 leukemia,> 100 µM
same,TGI,HT29 colon,> 100 µM
same,TGI,MCF7 breast,> 100 µM
same,TGI,KM12 colon,> 100 µM
same,TGI,HS 578T breast,> 100 µM
same,TGI,TK-10 renal,> 100 µM
same,TGI,SNB-19 CNS,> 100 µM
same,TGI,SR leukemia,> 100 µM
same,TGI,CCRF-CEM leukemia,> 100 µM
same,TGI,SN12C renal,> 100 µM
same,TGI,SK-MEL-28 melanoma,> 100 µM
same,TGI,MDA-MB-435,> 100 µM
same,TGI,PC-3 prostate,> 100 µM
same,TGI,OVCAR-4 ovarian,86.2 µM
same,TGI,786-0 renal,> 100 µM
same,TGI,HOP-62 NSCLC,> 100 µM
same,TGI,EKVX NSCLC,> 100 µM
same,TGI,SF-295 CNS,> 100 µM
same,TGI,OVCAR-3 ovarian,> 100 µM
same,TGI,SK-MEL-2 melanoma,> 100 µM
same,TGI,A549 NSCLC,> 100 µM
same,TGI,NCI-H23 lung,> 100 µM
CC(C)(C)c1cc(C(C)(C)C)c2sc(=S)oc2c1O,TGI,UO-31 renal,16.2 µM
same,TGI,NCI/ADR-RES ovarian,24.4 µM
same,TGI,RPMI-8226 leukemia,33.7 µM
same,TGI,U251 CNS,18.7 µM
same,TGI,HCT-116 colon,21 µM
same,TGI,UACC-257 melanoma,27.4 µM
same,TGI,SK-OV-3 ovarian,32.8 µM
same,TGI,DU-145 prostate,25.5 µM
same,TGI,CAKI-1 renal,18.6 µM
same,TGI,OVCAR-5 ovarian,20.2 µM
same,TGI,HL-60(TB) leukemia,33 µM
same,TGI,MOLT-4 leukemia,> 40.8 µM
same,TGI,T-47D breast,20.6 µM
same,TGI,NCI-H460 lung,18.2 µM
same,TGI,M14 melanoma,32.4 µM
same,TGI,LOX IMVI melanoma,17.7 µM
same,TGI,BT-549 breast,23.6 µM
same,TGI,SW-620 colon,> 46.7 µM
same,TGI,HOP-92 NSCLC,28.9 µM
same,TGI,NCI-H522 lung,20.5 µM
same,TGI,SNB-75 CNS,18.5 µM
same,TGI,SF-539 CNS,11.1 µM
same,TGI,SF-268 CNS,19.8 µM
same,TGI,IGROV1 ovarian,24.6 µM
same,TGI,MDA-MB-231 breast,26.7 µM
same,TGI,A498 renal,26 µM
same,TGI,MALME-3M melanoma,32.1 µM
same,TGI,OVCAR-8 ovarian,20.9 µM
same,TGI,MDA-N,19.8 µM
same,TGI,ACHN renal,20.8 µM
same,TGI,SK-MEL-5 melanoma,21.8 µM
same,TGI,UACC-62 melanoma,23.4 µM
same,TGI,HCT-15 colon,17.8 µM
same,TGI,NCI-H226 lung,34.2 µM
same,TGI,COLO 205 colon,29.6 µM
same,TGI,K-562 leukemia,32.9 µM
same,TGI,HT29 colon,30.1 µM
same,TGI,MCF7 breast,27.4 µM
same,TGI,KM12 colon,18 µM
same,TGI,HS 578T breast,20.4 µM
same,TGI,TK-10 renal,17.2 µM
same,TGI,SNB-19 CNS,27.6 µM
same,TGI,SR leukemia,9.76 µM
same,TGI,CCRF-CEM leukemia,> 27 µM
same,TGI,SN12C renal,19.7 µM
same,TGI,SK-MEL-28 melanoma,27.6 µM
same,TGI,MDA-MB-435,26.8 µM
same,TGI,PC-3 prostate,13.8 µM
same,TGI,OVCAR-4 ovarian,26.2 µM
same,TGI,786-0 renal,22.6 µM
same,TGI,HOP-62 NSCLC,31.1 µM
same,TGI,EKVX NSCLC,11.6 µM
same,TGI,RXF 393 renal,14.5 µM
same,TGI,SF-295 CNS,23.5 µM
same,TGI,OVCAR-3 ovarian,17.5 µM
same,TGI,SK-MEL-2 melanoma,24.3 µM
same,TGI,A549 NSCLC,> 41.3 µM
same,TGI,NCI-H23 lung,18.9 µM
